Data published in patent US9149038B2, “4-amino-6-(heterocyclic)picolinates and 6-amino-2-(heterocyclic)pyrimidine-4-carboxylates and their use as herbicides” (Dow AgroSciences LLC, priority 2013, dated 2015).
Read-outs that look alike come from different tables or passages of the source.

System: Wheat and Barley and weed species
Assay: Post-Emergent Test III: postemergent herbicidal activity in wheat and barley, visual rating after 21 d and probit GR20/GR50/GR80/GR90 (Tables 9-13)
Assay type: in vivo
Details: for pest or weed control at 17.5 g/ha / pest or weed control at 35 g/ha / pest or weed control at 70 g/ha: post-emergence, 504 h
Method in brief: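 Greenhouse plants (~18/17 °C, 14 h photoperiod) at second–third true leaf stage sprayed at 187 L/ha with a high rate and ½× to 1/16× serial dilutions. Visual injury 0–100% versus solvent-blank controls scored at 21 d; GR20, GR50, GR80 and GR90 derived by probit analysis across rates.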

**Q.** What does the source list for `COC(=O)c1nc(-c2cc3c(cc2F)OC(F)(F)O3)cc(N)c1Cl` [Compound 32]?
**A.** GR50 ALOMY (ALOMY black-grass (Alopecurus myosuroides), growth reduction of 50%, probit analysis): 5 g ai/ha; GR80 ALOMY (ALOMY black-grass (Alopecurus myosuroides), growth reduction of 80%, probit analysis): 12 g ai/ha; GR90 ALOMY (ALOMY black-grass (Alopecurus myosuroides), growth reduction of 90%, probit analysis): 18 g ai/ha; Visual Growth Reduction (%) 21 Days After Application AVEFA (AVEFA wild oat (Avena fatua), 17.5 g ai/ha): E (45-59); Visual Growth Reduction (%) 21 Days After Application AVEFA (AVEFA wild oat (Avena fatua), 35 g ai/ha): D (60-74); Visual Growth Reduction (%) 21 Days After Application AVEFA (AVEFA wild oat (Avena fatua), 70 g ai/ha): D (60-74); GR50 AVEFA (AVEFA wild oat (Avena fatua), growth reduction of 50%, probit analysis): 31 g ai/ha; GR80 AVEFA (AVEFA wild oat (Avena fatua), growth reduction of 80%, probit analysis): >70 g ai/ha; GR90 AVEFA (AVEFA wild oat (Avena fatua), growth reduction of 90%, probit analysis): >70 g ai/ha; GR20 HORVS (HORVS barley, spring (crop), growth reduction of 20%, probit analysis): 3 g ai/ha; pest or weed control at 17.5 g/ha (Hordeum vulgare, HORVS barley, spring (crop), 17.5 g ai/ha, read-out: Visual Growth Reduction (%) 21 Days After Application HORVS): 45 to 59%; pest or weed control at 35 g/ha (Hordeum vulgare, HORVS barley, spring (crop), 35 g ai/ha, read-out: Visual Growth Reduction (%) 21 Days After Application HORVS): 60 to 74%; pest or weed control at 70 g/ha (Hordeum vulgare, HORVS barley, spring (crop), 70 g ai/ha, read-out: Visual Growth Reduction (%) 21 Days After Application HORVS): 60 to 74%; GR50 LOLSS (LOLSS ryegrass, growth reduction of 50%, probit analysis): 54 g ai/ha; GR80 LOLSS (LOLSS ryegrass, growth reduction of 80%, probit analysis): >70 g ai/ha; GR90 LOLSS (LOLSS ryegrass, growth reduction of 90%, probit analysis): >70 g ai/ha; Visual Growth Reduction (%) 21 Days After Application PHAMI (PHAMI lesser canary grass (Phalaris minor), 17.5 g ai/ha): G (0-29); Visual Growth Reduction (%) 21 Days After Application PHAMI (PHAMI lesser canary grass (Phalaris minor), 35 g ai/ha): F (30-44); Visual Growth Reduction (%) 21 Days After Application PHAMI (PHAMI lesser canary grass (Phalaris minor), 70 g ai/ha): E (45-59); GR50 PHAMI (PHAMI lesser canary grass (Phalaris minor), growth reduction of 50%, probit analysis): 65 g ai/ha; GR80 PHAMI (PHAMI lesser canary grass (Phalaris minor), growth reduction of 80%, probit analysis): >70 g ai/ha; GR90 PHAMI (PHAMI lesser canary grass (Phalaris minor), growth reduction of 90%, probit analysis): >70 g ai/ha; GR20 TRZAS (TRZAS wheat, spring (crop), growth reduction of 20%, probit analysis): 1 g ai/ha; pest or weed control at 17.5 g/ha (Triticum aestivum, TRZAS wheat, spring (crop), 17.5 g ai/ha, read-out: Visual Growth Reduction (%) 21 Days After Application TRZAS): 60 to 74%; pest or weed control at 35 g/ha (Triticum aestivum, TRZAS wheat, spring (crop), 35 g ai/ha, read-out: Visual Growth Reduction (%) 21 Days After Application TRZAS): 60 to 74%; pest or weed control at 70 g/ha (Triticum aestivum, TRZAS wheat, spring (crop), 70 g ai/ha, read-out: Visual Growth Reduction (%) 21 Days After Application TRZAS): 75 to 84%; pest or weed control at 17.5 g/ha (ALOMY black-grass (Alopecurus myosuroides), 17.5 g ai/ha, read-out: Visual Growth Reduction (%) 21 Days After Application ALOMY): 85 to 94%; pest or weed control at 35 g/ha (ALOMY black-grass (Alopecurus myosuroides), 35 g ai/ha, read-out: Visual Growth Reduction (%) 21 Days After Application ALOMY): 95 to 100%; pest or weed control at 70 g/ha (ALOMY black-grass (Alopecurus myosuroides), 70 g ai/ha, read-out: Visual Growth Reduction (%) 21 Days After Application ALOMY): 95 to 100%; pest or weed control at 17.5 g/ha (LOLSS ryegrass, 17.5 g ai/ha, read-out: Visual Growth Reduction (%) 21 Days After Application LOLSS): 0 to 29%; pest or weed control at 35 g/ha (LOLSS ryegrass, 35 g ai/ha, read-out: Visual Growth Reduction (%) 21 Days After Application LOLSS): 30 to 44%; pest or weed control at 70 g/ha (LOLSS ryegrass, 70 g ai/ha, read-out: Visual Growth Reduction (%) 21 Days After Application LOLSS): 60 to 74%
